Measured values reported in paper PMC6661955, “Indole bearing thiadiazole analogs: synthesis, β-glucuronidase inhibition and molecular docking study” (BMC Chemistry, 2019).

What follows are molecules tested against T1, β-glucuronidase (Bos taurus, UniProt A3KMY8) (assay: β-glucuronidase inhibition). Details: grouping in words.
T1 sequence (A3KMY8 24-652): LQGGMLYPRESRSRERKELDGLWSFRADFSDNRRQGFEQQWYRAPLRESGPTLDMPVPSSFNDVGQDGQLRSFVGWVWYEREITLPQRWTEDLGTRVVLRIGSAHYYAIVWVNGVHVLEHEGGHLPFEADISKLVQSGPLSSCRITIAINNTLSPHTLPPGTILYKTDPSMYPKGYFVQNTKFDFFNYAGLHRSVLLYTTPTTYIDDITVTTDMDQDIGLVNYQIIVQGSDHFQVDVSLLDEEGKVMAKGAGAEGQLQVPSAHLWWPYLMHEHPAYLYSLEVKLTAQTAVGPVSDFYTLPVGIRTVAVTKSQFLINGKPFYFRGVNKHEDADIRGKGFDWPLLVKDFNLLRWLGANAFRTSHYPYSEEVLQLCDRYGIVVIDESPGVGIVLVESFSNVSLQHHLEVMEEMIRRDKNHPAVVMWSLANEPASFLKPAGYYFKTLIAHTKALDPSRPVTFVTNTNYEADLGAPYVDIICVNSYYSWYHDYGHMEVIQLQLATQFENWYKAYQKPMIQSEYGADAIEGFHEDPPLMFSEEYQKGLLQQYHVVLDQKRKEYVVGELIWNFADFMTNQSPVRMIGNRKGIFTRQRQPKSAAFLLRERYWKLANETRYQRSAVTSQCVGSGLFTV
Format: biochemical

activity group according to inhibitory IC50 values	SMILES
moderate active	Oc1cccc(-c2nnc(-c3ccc4[nH]ccc4c3)s2)c1 [Compound 4, 3-(5-(indol-5-yl)-1,3,4-thiadiazol-2-yl)phenol]
moderate active	Oc1ccc(-c2nnc(-c3ccc4[nH]ccc4c3)s2)cc1 [Compound 9, 4-(5-(1H-indol-5-yl)-1,3,4-thiadiazol-2-yl)phenol]
moderate active	Fc1ccc(-c2nnc(-c3ccc4[nH]ccc4c3)s2)cc1 [Compound 20, 2-(4-fluorophenyl)-5-(1H-indol-5-yl)-1,3,4-thiadiazole]
low active	Cc1ccccc1-c1nnc(-c2ccc3[nH]ccc3c2)s1 [Compound 2, 2-(1H-indol-5-yl)-5-(o-tolyl)-1,3,4-thiadiazole]

Further lines, the molecule ahead of its results:

SMILES	activity group according to inhibitory IC50 values
Oc1ccc(-c2nnc(-c3ccc4[nH]ccc4c3)s2)cc1O [Compound 7, 4-(5-(1H-indol-5-yl)-1,3,4-thiadiazol-2-yl)benzene-1,2-diol]	highly active
Cc1ccc(-c2nnc(-c3ccc4[nH]ccc4c3)s2)cc1 [Compound 1, 2-(1H-indol-5-yl)-5-(p-tolyl)-1,3,4-thiadiazole]	low active
Oc1ccccc1-c1nnc(-c2ccc3[nH]ccc3c2)s1 [Compound 3, 2-(5-(1H-indol-5-yl)-1,3,4-thiadiazol-2-yl)phenol]	highly active
Oc1cccc(-c2nnc(-c3ccc4[nH]ccc4c3)s2)c1O [Compound 6, 3-(5-(1H-indol-5-yl)-1,3,4-thiadiazol-2-yl)benzene-1,2-diol]	highly active
